Results on nine compounds are retold here after patent US20240417410A1, “TRICYCLIC COMPOUNDS FOR THE TREATMENT OF CANCER” (Hoffmann-La Roche Inc., priority 2023, published 2024).

Assay [1] deals with AGS cells (KRAS G12D). The assay can be described thus: Cell viability assay (Cell Counting Kit-8, 3-day). It counts as cell-based, human. Particulars: Homo sapiens, 72 h, 72 hrs incubation. Summed up:
(§1)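 Read-out is CCK-8 absorbance (OD450 minus OD650, 2 hrs after reagent), reflecting NADPH after 72 hrs of compound exposure in 0.5% DMSO. Seeding density was 5,000 cells/well for NCI-H358 and 2,000 for AGS and SW620. IC50 derived by 4-parameter sigmoidal fitting.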

The test system of assay [2] is NCI-H358 cells (KRAS G12C). The assay can be described thus: Cell viability assay (Cell Counting Kit-8, 3-day). It counts as cell-based, human. As to conditions: Homo sapiens, NCI-H358, 72 h, NCI-H358, 72 hrs incubation. The method in brief: as §1
(In general: Tetrazolium dyes change colour on reduction, which living cells bring about.)

Assay [3] relates to SW620 cells (KRAS G12V). The assay is described as follows: Cell viability assay (Cell Counting Kit-8, 3-day). It counts as cell-based, human. As to conditions: Homo sapiens, SW-620; SW620, 72 hrs incubation. Summed up: as §1
Assay [4] has as its target KRAS G12C-BRAF complex (Homo sapiens (Human), UniProt P01116+P62937, G12C). The assay is described as follows: KRAS-BRAF with CYPA (500 nM) interaction assay (TR-FRET, Example 136). As to conditions: KRAS G12C-BRAF disruption. It counts as biochemical. A general note: TR-FRET usually uses a lanthanide donor and a delayed reading to cut background.
Assay [5] has as its system phosphorylation of ERK, KRAS G12C in NCI-H358 cells. The assay is described as follows: pERK inhibition assay. It counts as cell-based. Particulars: Homo sapiens, NCI-H358, 4 h. The method in brief:
(§2)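 Phospho-ERK quantified by in-cell ELISA with TMB read-out at OD450 following 4 h compound exposure (final 0.5% DMSO). Cell lines were SW620 (KRAS G12V), AGS (G12D) and NCI-H358 (G12C), grown in RPMI-1640 with 10% FBS. A 4-parameter sigmoidal model gave the IC50.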

The subject of assay [6] is phosphorylation of ERK, KRAS G12D in AGS cells. The assay can be described thus: pERK inhibition assay. As to conditions: Homo sapiens, AGS, 4 h. It counts as cell-based. Summed up: as §2
In assay [7] the test system is phosphorylation of ERK, KRAS G12V in SW620. The assay is described as follows: pERK inhibition assay. It counts as cell-based. Particulars: Homo sapiens, SW-620, 4 h, SW620 cells. The method in brief: as §2

Molecules are shown by their SMILES.

Sequence of KRAS G12C-BRAF complex (P01116-2 other isoform, or with tags, fused parts or gaps G12C): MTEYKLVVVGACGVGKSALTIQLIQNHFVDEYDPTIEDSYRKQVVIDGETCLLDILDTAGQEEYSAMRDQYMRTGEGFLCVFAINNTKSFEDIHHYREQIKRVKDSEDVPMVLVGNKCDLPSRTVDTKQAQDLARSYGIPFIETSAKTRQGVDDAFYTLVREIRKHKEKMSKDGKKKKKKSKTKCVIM
Sequence of KRAS G12C-BRAF complex (P62937 whole entry): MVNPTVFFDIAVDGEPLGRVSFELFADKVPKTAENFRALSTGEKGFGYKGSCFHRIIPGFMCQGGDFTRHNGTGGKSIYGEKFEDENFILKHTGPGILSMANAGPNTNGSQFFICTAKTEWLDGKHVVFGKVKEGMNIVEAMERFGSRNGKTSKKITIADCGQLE

The term IC50 denotes the midpoint of a concentration-inhibition curve. High values mean weaker potency, low ones greater potency. Consider `CO[C@@H](C)c1ncc(N2CCN(CCF)CC2)cc1-c1c2c3cc(cc4c3n1CCC4)-c1csc(n1)C[C@H](NC(=O)[C@H]1[C@H](C)[C@@H]1C)C(=O)N1CCC[C@H](N1)C(=O)OCC(C)(C)C2` (atropisomer, axis not shown; (M)) [Example 110, (1r,2R,3S)-N-[(7S,13S)-(20M)-20-[5-[4-(2-fluoroethyl)piperazin-1-yl]-2-[(1S)-1-methoxyethyl]-3-pyridyl]-17,17-dimethyl-8,14-dioxo-15-oxa-4-thia-9,21,30,31-tetrazahexacyclo[23.3.1.1^2,5.1^9,13.0^19,27.0^21,26]hentriaconta-1 (28),2,5 (31), 19,25 (29),26-hexaen-7-yl]-2,3-dimethyl-cyclopropanecarboxamide], for which the IC50 was 2.6 nM in assay [1]; 1.8 nM in assay [2]; 0.4 nM in assay [3]; 4.9 nM in assay [4]; 0.7 nM in assay [5]; 2.6 nM in assay [6]. Besides, in assay [7], the IC50 came out at 0.3 nM.

Consider `CO[C@@H](C)c1ncc(N2CCN(CCCO)CC2)cc1-c1c2c3cc(cc4c3n1CCC4)-c1csc(n1)C[C@H](NC(=O)[C@H]1[C@H](C)[C@@H]1C)C(=O)N1CCC[C@H](N1)C(=O)OCC(C)(C)C2` (atropisomer, axis not shown; (M)) [Example 111, (1r,2R,3S)-N-[(7S,13S)-(20M)-20-[5-[4-(3-hydroxypropyl)piperazin-1-yl]-2-[(1S)-1-methoxyethyl]-3-pyridyl]-17,17-dimethyl-8,14-dioxo-15-oxa-4-thia-9,21,30,31-tetrazahexacyclo[23.3.1.1^2,5.1^9,13.0^19,27.0^21,26]hentriaconta-1 (28),2,5 (31), 19,25 (29),26-hexaen-7-yl]-2,3-dimethyl-cyclopropanecarboxamide], for which the IC50 in assay [1] was 0.8 nM; in assay [2], 1 nM; in assay [3] it was 0.2 nM; in assay [4], 4.7 nM; in assay [5], 0.6 nM; in assay [6], 2 nM. Moreover, in assay [7], the IC50 is 0.4 nM.

For `CO[C@@H](C)c1ncc(N2CCN(C)CC2)cc1-c1c2c3cc(cc4c3n1CCC4)-c1csc(n1)C[C@H](NC(=O)[C@@H]1C[C@H]1c1cncnc1C)C(=O)N1CCC[C@H](N1)C(=O)OCC(C)(C)C2` (atropisomer, axis not shown; (M)) [Example 112, (1R,2R)-N-[(7S,13S)-(20M)-20-[2-[(1S)-1-methoxyethyl]-5-(4-methylpiperazin-1-yl)-3-pyridyl]-17,17-dimethyl-8,14-dioxo-15-oxa-4-thia-9,21,30,31-tetrazahexacyclo[23.3.1.1^2,5.1^9,13.0^19,27.0^21,26]hentriaconta-1 (28),2,5 (31), 19,25 (29),26-hexaen-7-yl]-2-(4-methylpyrimidin-5-yl)cyclopropanecarboxamide], the IC50 in assay [1] came out at 3.4 nM; in assay [2] it was 2.2 nM; in assay [3], 0.8 nM; in assay [4], 10.4 nM; in assay [5] it was 0.7 nM; in assay [6] it was 3.4 nM. Also, the IC50 in assay [7] turned out to be 0.5 nM.

For the compound `CCN1CCN(c2cnc([C@H](C)OC)c(-c3c4c5cc(cc6c5n3CCC6)-c3csc(n3)C[C@H](NC(=O)[C@H]3[C@H](C)[C@@H]3C)C(=O)N3CCC[C@H](N3)C(=O)OCC(C)(C)C4)c2)CC1` (atropisomer, axis not shown; (M)) [Example 113, (1r,2R,3S)-N-[(7S,13S)-(20M)-20-[5-(4-ethylpiperazin-1-yl)-2-[(1S)-1-methoxyethyl]-3-pyridyl]-17,17-dimethyl-8,14-dioxo-15-oxa-4-thia-9,21,30,31-tetrazahexacyclo[23.3.1.1^2,5.1^9,13.0^19,27.0^21,26]hentriaconta-1 (28),2,5 (31), 19,25 (29),26-hexaen-7-yl]-2,3-dimethyl-cyclopropanecarboxamide], the half-inhibitory concentration (IC50) was determined as 1.5 nM in assay [1]; 2.1 nM in assay [2]; 0.3 nM in assay [3]; 4.3 nM in assay [4]; 0.6 nM in assay [5]; 2.2 nM in assay [6]. This compound showed an IC50 in assay [7] of 0.4 nM.

For `CO[C@@H](C)c1ncc(N2CCN(C)CC2)cc1-c1c2c3cc(cc4c3n1CCC4)-c1csc(n1)C[C@H](NC(=O)[C@@H]1C[C@H]1c1cscn1)C(=O)N1CCC[C@H](N1)C(=O)OCC(C)(C)C2` (atropisomer, axis not shown; (M)) [Example 114, (1R,2R)-N-[(7S,13S)-(20M)-20-[2-[(1S)-1-methoxyethyl]-5-(4-methylpiperazin-1-yl)-3-pyridyl]-17,17-dimethyl-8,14-dioxo-15-oxa-4-thia-9,21,30,31-tetrazahexacyclo[23.3.1.1^2,5.1^9,13.0^19,27.0^21,26]hentriaconta-1 (28),2,5 (31), 19,25 (29),26-hexaen-7-yl]-2-thiazol-4-yl-cyclopropanecarboxamide], the IC50 in assay [1] came to 5.1 nM; in assay [2], 4.5 nM; in assay [3] it was 1.3 nM; in assay [4], 8.9 nM; in assay [5], 1.2 nM; in assay [6] it was 7.5 nM. The same compound had an IC50 in assay [7] of 1 nM.

For the compound `COCCN1CCN(c2cnc([C@H](C)OC)c(-c3c4c5cc(cc6c5n3CCC6)-c3csc(n3)C[C@H](NC(=O)[C@H]3[C@H](C)[C@@H]3C)C(=O)N3CCC[C@H](N3)C(=O)OCC(C)(C)C4)c2)CC1` (atropisomer, axis not shown; (M)) [Example 115, (1r,2S,3R)-N-[(7S,13S)-(20M)-20-[2-[(1S)-1-methoxyethyl]-5-[4-(2-methoxyethyl)piperazin-1-yl]-3-pyridyl]-17,17-dimethyl-8,14-dioxo-15-oxa-4-thia-9,21,30,31-tetrazahexacyclo[23.3.1.1^2,5.1^9,13.0^19,27.0^21,26]hentriaconta-1 (28),2,5 (31), 19,25 (29),26-hexaen-7-yl]-2,3-dimethyl-cyclopropanecarboxamide], the IC50 in assay [1] turned out to be 3.4 nM; in assay [2] it was 1.7 nM; in assay [3] it was 0.4 nM; in assay [4], 18.5 nM; in assay [5], 0.8 nM; in assay [6] it was 2.6 nM. In addition, in assay [7], it took 0.2 nM to reach half-maximal inhibition (IC50).

On to `CO[C@@H](C)c1ncc(N2CCN(C)CC2)cc1-c1c2c3cc(cc4c3n1CCC4)-c1csc(n1)C[C@H](NC(=O)[C@@H]1C[C@H]1c1cccnc1C)C(=O)N1CCC[C@H](N1)C(=O)OCC(C)(C)C2` (atropisomer, axis not shown; (M)) [Example 116, (1R,2R)-N-[(7S,13S)-(20M)-20-[2-[(1S)-1-methoxyethyl]-5-(4-methylpiperazin-1-yl)-3-pyridyl]-17,17-dimethyl-8,14-dioxo-15-oxa-4-thia-9,21,30,31-tetrazahexacyclo[23.3.1.1^2,5.1^9,13.0^19,27.0^21,26]hentriaconta-1 (28),2,5 (31), 19,25 (29),26-hexaen-7-yl]-2-(2-methyl-3-pyridyl)cyclopropanecarboxamide], for which the IC50 in assay [1] amounted to 3.5 nM; in assay [2], 1.4 nM; in assay [3], 0.5 nM; in assay [4] it was 20.6 nM; in assay [5] it was 0.8 nM; in assay [6], 4.6 nM. In addition, in assay [7], half-maximal inhibition (IC50) was put at 0.7 nM.

On to `CO[C@@H](C)c1ncc(N2CCN(C3CCOCC3)CC2)cc1-c1c2c3cc(cc4c3n1CCC4)-c1csc(n1)C[C@H](NC(=O)[C@H]1[C@H](C)[C@@H]1C)C(=O)N1CCC[C@H](N1)C(=O)OCC(C)(C)C2` (atropisomer, axis not shown; (M)) [Example 117, (1r,2R,3S)-N-[(7S,13S)-(20M)-20-[2-[(1S)-1-methoxyethyl]-5-(4-tetrahydropyran-4-ylpiperazin-1-yl)-3-pyridyl]-17,17-dimethyl-8,14-dioxo-15-oxa-4-thia-9,21,30,31-tetrazahexacyclo[23.3.1.1^2,5.1^9,13.0^19,27.0^21,26]hentriaconta-1 (28),2,5 (31), 19,25 (29),26-hexaen-7-yl]-2,3-dimethyl-cyclopropanecarboxamide], for which the IC50 in assay [1] was found to be 2.5 nM; in assay [2], 1.5 nM; in assay [3], 0.2 nM; in assay [4], 15.9 nM; in assay [5], 0.7 nM; in assay [6], 4.1 nM. Further, 0.3 nM corresponded to half-maximal inhibition in assay [7] (IC50).

Regarding `CO[C@@H](C)c1ncc(N2CCN(C3COC3)CC2)cc1-c1c2c3cc(cc4c3n1CCC4)-c1csc(n1)C[C@H](NC(=O)[C@H]1[C@H](C)[C@@H]1C)C(=O)N1CCC[C@H](N1)C(=O)OCC(C)(C)C2` (atropisomer, axis not shown; (M)) [Example 118, (1r,2R,3S)-N-[(7S,13S)-(20M)-20-[2-[(1S)-1-methoxyethyl]-5-[4-(oxetan-3-yl)piperazin-1-yl]-3-pyridyl]-17,17-dimethyl-8,14-dioxo-15-oxa-4-thia-9,21,30,31-tetrazahexacyclo[23.3.1.1^2,5.1^9,13.0^19,27.0^21,26]hentriaconta-1 (28),2,5 (31), 19,25 (29),26-hexaen-7-yl]-2,3-dimethyl-cyclopropanecarboxamide], the IC50 in assay [1] was 1.3 nM; in assay [2] it was 1.1 nM; in assay [3] it was 0.2 nM; in assay [4], 13.5 nM; in assay [5] it was 0.7 nM; in assay [6] it was 3.5 nM. Moreover, the IC50 in assay [7] turned out to be 0.3 nM.
